Laboratory results taken from US20180147161A1, “MULTIDRUG BRITTLE MATRIX COMPOSITIONS” (BOARD OF REGENTS, THE UNIVERSITY OF TEXAS SYSTEM, priority 2015, published 2018).
Like-named read-outs stand apart in the source and are kept apart here.

Legend:
[1] = BET specific surface area of triple therapy materials; type: physicochemical; details: for SSA: after jet milling
Description: Powder porosity was determined through the measurement of the specific surface area (SSA) using a Monosorb MS-22 rapid surface area analyzer (Quantachrome Instruments, Boynton Beach, Fla.). The instrument uses a modified BET equation for SSA determination. Samples were degassed in a Thermoflow™ Degasser for at least 2 hours at 25° C. using 30% nitrogen in helium as the […].

[2] = Particle size distribution by laser diffraction; type: physicochemical; details: for Particle size D10 / Particle size D50 / Particle size D90: laser diffraction
Description: Measurement of particle size distributions of budesonide, tiotropium bromide and formoterol fumarate before and after jet milling were measured by laser diffraction (HELOS, Sympatec GmbH, Clausthal-Zellerfelg, Germany). A small amount of formoterol fumarate and Tiotropium bromide were separately dispersed in 10 mL 0.01% tween 80 mineral oil and a small amount of budesonide was dispersed in 10 mL 0.01% tween 80 in deionized water. The samples were sonicated for 5 minutes and diluted with enough solvent to produce light obscuration in the range of 15-20%. The sizes reported are average values of at least 3 measurements. The results are presented as D(x) and span, where X is the cumulative percentile of particles under the referred size (e.g. D(50) corresponds to the median diameter of the particles). Span is a measurement of particle size distribution calculated as [(D(90)−D(10)]/D(50).

[3] = Particle size distribution by laser diffraction; type: physicochemical; details: [(D(90)−D(10)]/D(50))
[4] = cited from earlier work

Compound	SSA ± SD [1] [m^2/g]	Span ([2]; [(D(90)−D(10)]/D(50)))	Particle size D10 [2] [μm]	Particle size D50 [2] [μm]	Particle size D90 [2] [μm]	Span [3]	also measured
COc1ccc(C[C@@H](C)NC[C@H](O)c2ccc(O)c(NC=O)c2)cc1.COc1ccc(C[C@@H](C)NC[C@H](O)c2ccc(O)c(NC=O)c2)cc1.O=C(O)/C=C/C(=O)O [Formoterol furmarate, formoterol fumarate]	2.97 ± 0.05	7.75	1.16 ± 0.05	6.27 ± 0.97	49.78 ± 7.84	7.75	SSA [1]: 5.08±0.26 m^2/g; SSA ± SD ([1]; listed as formoterol): 2.97±0.05 m^2/g; D50 ([2]; after jet milling): 4.51±0.02 μm; Span ([2]; after jet milling): 1.96; Particle size D50 ([2]; listed as Formoterol): 6.27±0.97 μm
C[N+]1(C)[C@@H]2C[C@@H](OC(=O)C(O)(c3cccs3)c3cccs3)C[C@H]1[C@@H]1O[C@@H]12 [Jet milled tiotropium bromide, tiotropium bromide]	2.86 ± 0.11	2.0	1.09 ± 0.79	4.65 ± 0.04	10.39 ± 0.04		
O.OC[C@H]1O[C@@H](O[C@H]2[C@H](O)[C@@H](O)C(O)O[C@@H]2CO)[C@H](O)[C@@H](O)[C@H]1O (some centres unmarked) [Lactose monohydrate, lactose monohydrate]	0.34 ± 0.03	2.43	4.13 ± 0.11		100.9 ± 0.27		Particle size D50 ([2]; listed as lactose, monohydrate): 39.78±1.32 μm; Particle size D50 ([2]; monohydrate): 39.78 ± 1.32 μm
OC[C@@H](O)[C@@H](O)[C@H](O)[C@H](O)CO [Mannitol, D-(+)-Mannitol]	0.22 ± 0.001	1.8	6.88 ± 0.07	52.70 ± 0.59	101.91 ± 0.41	1.80	Particle size D50 ([2]; listed as mannitol): 52.70±0.59 μm
C[N+]1(C)[C@@H]2C[C@@H](OC(=O)C(O)(c3cccs3)c3cccs3)C[C@H]1[C@@H]1O[C@@H]12 [Tiotropium bromide, tiotropium bromide]	2.08 ± 0.13	2.14	1.10 ± 0.01	5.14 ± 0.03	12.11 ± 0.07	2.14	SSA [1]: 2.86±0.11 m^2/g; SSA ± SD ([1]; listed as tiotropium): 2.08±0.13 m^2/g; D50 ([2]; after jet milling): 4.65±0.04 μm; Span ([2]; after jet milling): 2.0; Particle size D50 ([2]; listed as tiotropium): 5.14±0.03 μm
COc1ccc(C[C@@H](C)NC[C@H](O)c2ccc(O)c(NC=O)c2)cc1.COc1ccc(C[C@@H](C)NC[C@H](O)c2ccc(O)c(NC=O)c2)cc1.O=C(O)/C=C/C(=O)O [jet milled formoterol fumarate, formoterol fumarate]	5.08 ± 0.26	1.96	1.45 ± 1.01	4.51 ± 0.02	10.29 ± 0.07		
C[C@@H]1C[C@H]2[C@@H]3CCC4=CC(=O)C=C[C@]4(C)[C@@]3(Cl)[C@@H](O)C[C@]2(C)[C@@]1(OC(=O)c1ccco1)C(=O)CCl [mometasone furoate]							Solubility in water [4]: practically insoluble
OCc1cc(C(O)CNCCCCCCOCCCCc2ccccc2)ccc1O (centres unmarked) [salmeterol xinafoate]							Solubility in water [4]: sparingly soluble
